Data: the NIST ThermoML archive (doi:10.1021/je7007654)

Experiment: xn = mol fraction of the nth substance listed
Conditions: 101 kPa, Liquid; for viscosity: Capillary tube (Ostwald / Ubbelohde) method; for speed of sound: Sing-around technique in a fixed-path interferometer

CC(C)CCCC(C)CCCC(C)CCCCC(C)CCCC(C)CCCC(C)C (stereo not given) [2,6,10,15,19,23-hexamethyltetracosane] + CCCCO
Conditions | speed of sound, 298.15 K [m/s] | speed of sound, 303.15 K [m/s] | speed of sound, 308.15 K [m/s] | viscosity, 298.15 K [mPa·s] | viscosity, 303.15 K [mPa·s] | viscosity, 308.15 K [mPa·s]
x2 = 0 | 1381.9 | 1364.1 | 1346.5 | 28.26 | 22.09 | 17.77
x2 = 0.0451 | 1379.5 | 1361.7 | 1343 | 26.66 | 20.88 | 16.81
x2 = 0.1077 | 1376.1 | 1358.3 | 1340.2 | 24.69 | 19.42 | 15.62
x2 = 0.1346 | 1374.8 | 1356.5 | 1338.9 | 23.92 | 18.86 | 15.16
x2 = 0.1888 | 1371.7 | 1353.8 | 1335.9 | 22.48 | 17.78 | 14.29
x2 = 0.2231 | 1369.7 | 1351.8 | 1333.9 | 21.62 | 17.14 | 13.79
x2 = 0.3059 | 1365.1 | 1347.1 | 1329.3 | 19.67 | 15.64 | 12.62
x2 = 0.4052 | 1358.8 | 1340.8 | 1322.8 | 17.39 | 13.9 | 11.38
x2 = 0.5039 | 1350.9 | 1332.6 | 1314.8 | 15.11 | 12.14 | 9.903
x2 = 0.6118 | 1340.5 | 1322.5 | 1304.6 | 12.47 | 10.12 | 8.307
x2 = 0.7056 | 1328.8 | 1310.9 | 1293.1 | 10.06 | 8.276 | 6.824
x2 = 0.7998 | 1312.5 | 1294.8 | 1277.1 | 7.573 | 6.348 | 5.267
x2 = 0.8546 | 1299.5 | 1281.8 | 1264.2 | 6.128 | 5.2 | 4.344
x2 = 0.9035 | 1284.3 | 1266.8 | 1249.1 | 4.873 | 4.186 | 3.527
x2 = 0.9669 | 1258.5 | 1241.4 | 1224.4 | 3.325 | 2.912 | 2.497

mass density [kg/m3], Vibrating tube method
Conditions | 298.15 K | 303.15 K | 308.15 K
x2 = 0 | 805.122 | 801.912 | 798.709
x2 = 0.0451 | 804.881 | 801.658 | 798.397
x2 = 0.1077 | 804.649 | 801.402 | 798.084
x2 = 0.1346 | 804.573 | 801.318 | 797.991
x2 = 0.1888 | 804.447 | 801.16 | 797.826
x2 = 0.2231 | 804.377 | 801.07 | 797.731
x2 = 0.3059 | 804.273 | 800.898 | 797.543
x2 = 0.4052 | 804.097 | 800.714 | 797.32
x2 = 0.5039 | 803.949 | 800.528 | 797.098
x2 = 0.6118 | 803.817 | 800.347 | 796.857
x2 = 0.7056 | 803.732 | 800.179 | 796.621
x2 = 0.7998 | 803.836 | 800.194 | 796.558
x2 = 0.8546 | 803.989 | 800.335 | 796.66
x2 = 0.9035 | 804.336 | 800.708 | 796.979
x2 = 0.9669 | 805.126 | 801.896 | 798.06

CCCCCCCCCCCCCCCC [hexadecane] + CCCCO
Conditions | mass density, 298.15 K [kg/m3] | mass density, 303.15 K [kg/m3] | mass density, 308.15 K [kg/m3] | speed of sound, 298.15 K [m/s] | speed of sound, 303.15 K [m/s] | speed of sound, 308.15 K [m/s] | viscosity, 298.15 K [mPa·s] | viscosity, 303.15 K [mPa·s] | viscosity, 308.15 K [mPa·s]
x2 = 0 | 770.456 | 766.981 | 763.52 | 1338.6 | 1320 | 1301.7 | 3.041 | 2.706 | 2.409
x2 = 0.0899 | 770.953 | 767.402 | 763.863 | 1332.4 | 1313.4 | 1294.9 | 2.957 | 2.6 | 2.302
x2 = 0.1048 | 771.053 | 767.499 | 763.961 | 1331.2 | 1312.2 | 1293.8 | 2.937 | 2.582 | 2.287
x2 = 0.1516 | 771.517 | 767.916 | 764.36 | 1328.2 | 1309.2 | 1290.3 | 2.899 | 2.546 | 2.254
x2 = 0.2017 | 772.074 | 768.482 | 764.874 | 1324.9 | 1305.8 | 1287.3 | 2.846 | 2.515 | 2.223
x2 = 0.2494 | 772.705 | 769.093 | 765.462 | 1321.9 | 1302.9 | 1284.4 | 2.811 | 2.478 | 2.189
x2 = 0.3382 | 774.083 | 770.439 | 766.796 | 1315.8 | 1296.9 | 1278.2 | 2.753 | 2.432 | 2.146
x2 = 0.4147 | 775.524 | 771.883 | 768.201 | 1310.6 | 1291.6 | 1273.1 | 2.704 | 2.394 | 2.112
x2 = 0.5057 | 777.651 | 773.952 | 770.24 | 1303.9 | 1285.5 | 1266.9 | 2.665 | 2.344 | 2.068
x2 = 0.5845 | 779.95 | 776.223 | 772.472 | 1297.6 | 1279.2 | 1260.9 | 2.635 | 2.306 | 2.029
x2 = 0.698 | 784.249 | 780.452 | 776.653 | 1287.4 | 1269.2 | 1251.1 | 2.594 | 2.256 | 1.99
x2 = 0.7945 | 789.246 | 785.434 | 781.597 | 1276.8 | 1258.5 | 1240.6 | 2.568 | 2.223 | 1.96
x2 = 0.8497 | 792.847 | 789.093 | 785.172 | 1269.5 | 1251.4 | 1233.7 | 2.558 | 2.218 | 1.953
x2 = 0.8963 | 796.346 | 792.717 | 788.76 | 1262.7 | 1244.8 | 1227.4 | 2.551 | 2.219 | 1.948
x2 = 0.953 | 801.232 | 797.973 | 794.054 | 1252.3 | 1235.8 | 1218.5 | 2.556 | 2.228 | 1.953
